# According to patent US11965204B2, “Detection of analytes by enzyme-mediated strand displacement reactions” (priority 2020, dated 2024):
# B1: MphR: aTF used to sense macrolides; SEQ ID NO: 22 (protein, listed as Escherichia coli)
# chain: MPRPKLKSDDEVLEAATVVLKRCGPIEFTLSGVAKEVGLSRAALIQRFTNRDTLLVRMMERGVEQVRHYLNAIPIGAGPQGLWEFLQVLVRSMNTRNDFSVNYLISWYELQVPELRTLAIQRNRAVVEGIRKRLPPGAPAAAELLLHSVIAGATMQWAVDPDGELADHVLAQIAAILCLMFPEHDDFQLLQAHA
# Columns and labels:
# MphR = experiment: MphR-based biosensor, derepression by ligand; type: biochemical, E. coli; details: fixed concentration of MphR; erythromycin 0 nM-2.5 uM; FIG. 10
# Description: (§1) Here we present two biosensors built with the described mechanism above. As shown in FIGS. 7A-7B, the aTF TetR (SEQ ID NO: 21) can be used to build a tetracycline biosensor using its corresponding operator sequence in the DNA template and partially in the IP (SEQ ID NO: 19). Increasing concentrations of TetR decrease the rate of the reaction as there is less DNA template accessible to HgaI. When the system is repressed by a given concentration of TetR, it can be derepressed by the ligand tetracycline. The rate of the reaction is proportional to the concentration of tetracycline within a certain concentration range (FIG. 8). Similarly, a circuit using the aTF MphR (SEQ ID NO: 22) with its corresponding operator sequence (SEQ ID NOs: 17 and 18) in the DNA template and partially in the IP (SEQ ID NO: 20) can be used to sense macrolides.
# (§2) HgaI/Toehold-Mediated Strand Displacement Reactions.
# [1] = tested on: DNA template (S) with MphR operator sequence; experiment: Titration of MphR in the HgaI/toehold-mediated strand displacement reaction; type: biochemical; details: absence of erythromycin; MphR 0 nM-3 uM; FIG. 9B
# Description: FIG. 9A illustrates the components of the biosensor, indicating the DNA template (S) and Invading Probe (IP) sequences and modifications.
# as §1, §2
Molecule,response of the MphR-repressed reaction to the ligand (MphR),effect of increasing aTF concentration on reaction rate [1]
CC[C@H]1OC(=O)[C@H](C)[C@@H](O[C@H]2C[C@@](C)(OC)[C@@H](O)[C@H](C)O2)[C@H](C)[C@@H](O[C@@H]2O[C@H](C)C[C@H](N(C)C)[C@H]2O)[C@](C)(O)C[C@@H](C)C(=O)[C@H](C)[C@@H](O)[C@]1(C)O [erythromycin],proportionally higher reaction rates,
B1,,decrease of the reaction rate
